Reference: US5545639A, “Method of inhibiting transformed cells” (The United States of America as represented by the …, priority 1994, dated 1996)

Legend:
Format in all cases: cell-based
[1] = system: L1210 mouse cells; assay: Example 3: growth of L1210 mouse cells with bis(halomethyl)phenanthrolines plus copper, with or without BCS; conditions: at highest concentration tested (3 μM); copper 10 μM, BCS 100 μM
Protocol: Bis(halomethyl)phenanthroline compounds were synthesized according to the method of Newkome et al., J. Org. Chem., 48, 5112-5114 (1983). Such compounds, namely, 2,9-bis(bromomethyl)phenanthroline and 2,9-bis(chloromethyl)phenanthroline, were added in the presence of copper, but with or without BCS (the copper chelator shown in Examples 1 and 2 to reduce inhibitory activity), to the culture media of L1210 mouse cells, using the same methods of Examples 1 and 2. The concentrations of copper and BCS used in these experiments were 10 μM and 100 μM, respectively. The growth of the cells as a percent of control were determined, and the results plotted in the graph of FIG. 3, wherein open squares (.quadrature.) represent the compound plus copper chelate and solid squares (.box-solid.) represent the compound together with both copper and BCS addition to the culture medium.

[2] = system: DMS 273; assay: Dose response of growth, tumor cell line; conditions: Homo sapiens, DMS 273, small cell lung cancer
[3] = system: human tumor cell lines; assay: Example 5: dose response of growth of human tumor cell lines, overall panel
Protocol: Indeed, 70% of the cell lines were shown not only to experience precluded growth, but cell death, when exposed to less then 100 μM of the active ingredient.

Structure (SMILES): ClCc1ccc2ccc3ccc(CCl)nc3c2n1 [2,9-bis(chloromethyl)-1,10-phenanthroline]
- difference between the copper-chelated and the unchelated derivative [1]: 10%
- IC50 ([2]; read-out: 50% Growth (Relative to Control)): 2840 nM
- IC100 ([2]; read-out: No Growth (Relative to Control)): > 100 µM
- IC (total growth inhibition) ([3]; Homo sapiens, average, majority of cell lines, read-out: average concentration to preclude growth of the transformed cells in vitro, majority of cell lines): ~5.66 µM
- cessation of growth of transformed cells ([3]; human tumor cell lines): nearly all transformed cells cease growth in the presence of micromolar concentrations
